Assay results as given in the supplement of paper PMC10307832.

Tests used:
Experiment in all cases: relative viability (nuclei count vs DMSO), 5 days (fraction); higher = more cells survive
COR-L 105 = test system: COR-L 105
Method in brief: (§1)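 Lung cancer cell lines in 1536-well plates got either a single drug or a fixed anchor-drug dose together with five library-drug doses (not always all listed) in √10 steps, by pin tool, on the day after seeding. Nuclei were counted after 5 days, and relative viability is the treated-to-vehicle ratio of nuclei counts. Values are medians of duplicate plates.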

LCLC-103H = test system: LCLC-103H
Method in brief: as §1

LK-2 = test system: LK-2
Method in brief: as §1

NCI-H1355 = test system: NCI-H1355
Method in brief: as §1

NCI-H1648 = test system: NCI-H1648
Method in brief: as §1

NCI-H520 = test system: NCI-H520
Method in brief: as §1

NCI-H522 = test system: NCI-H522
Method in brief: as §1

CCN(CC)CCCCNc1ncc2cc(-c3cc(OC)cc(OC)c3)c(NC(=O)NC(C)(C)C)nc2n1 + CC(=O)c1c(C)c2cnc(Nc3ccc(N4CCNCC4)cn3)nc2n(C2CCCC2)c1=O [Palbociclib] (partner 0.5 µM)
relative viability (COR-L 105; first compound 0.01 µM): 0.398 | relative viability (COR-L 105; first compound 0.03162 µM): 0.393 | relative viability (COR-L 105; first compound 0.1 µM): 0.427 | relative viability (COR-L 105; first compound 0.3162 µM): 0.423 | relative viability (COR-L 105; first compound 1 µM): 0.405 | relative viability (LCLC-103H; first compound 0.01 µM): 0.473 | relative viability (LCLC-103H; first compound 0.03162 µM): 0.423 | relative viability (LCLC-103H; first compound 0.1 µM): 0.457 | relative viability (LCLC-103H; first compound 0.3162 µM): 0.48 | relative viability (LCLC-103H; first compound 1 µM): 0.466 | relative viability (LK-2; first compound 0.01 µM): 0.65 | relative viability (LK-2; first compound 0.03162 µM): 0.66 | relative viability (LK-2; first compound 0.1 µM): 0.637 | relative viability (LK-2; first compound 0.3162 µM): 0.502 | relative viability (LK-2; first compound 1 µM): 0.156 | relative viability (NCI-H1355; first compound 0.01 µM): 0.378 | relative viability (NCI-H1355; first compound 0.03162 µM): 0.402 | relative viability (NCI-H1355; first compound 0.1 µM): 0.465 | relative viability (NCI-H1355; first compound 0.3162 µM): 0.376 | relative viability (NCI-H1355; first compound 1 µM): 0.364 | relative viability (NCI-H1648; first compound 0.01 µM): 0.288 | relative viability (NCI-H1648; first compound 0.03162 µM): 0.292 | relative viability (NCI-H1648; first compound 0.1 µM): 0.237 | relative viability (NCI-H1648; first compound 0.3162 µM): 0.274 | relative viability (NCI-H1648; first compound 1 µM): 0.238 | relative viability (NCI-H520; first compound 0.01 µM): 0.22 | relative viability (NCI-H520; first compound 0.03162 µM): 0.22 | relative viability (NCI-H520; first compound 0.1 µM): 0.217 | relative viability (NCI-H520; first compound 0.3162 µM): 0.175 | relative viability (NCI-H520; first compound 1 µM): 0.15 | relative viability (NCI-H522; first compound 0.01 µM): 1.04 | relative viability (NCI-H522; first compound 0.03162 µM): 1.01 | relative viability (NCI-H522; first compound 0.1 µM): 0.921 | relative viability (NCI-H522; first compound 0.3162 µM): 1.12 | relative viability (NCI-H522; first compound 1 µM): 0.935

COc1nc(C)cnc1NS(=O)(=O)c1cccnc1-c1ccc(-c2nnco2)cc1 [Zibotentan] + CC(=O)c1c(C)c2cnc(Nc3ccc(N4CCNCC4)cn3)nc2n(C2CCCC2)c1=O [Palbociclib] (partner 0.5 µM)
relative viability (COR-L 105; first compound 0.08 µM): 0.381 | relative viability (COR-L 105; first compound 0.253 µM): 0.375 | relative viability (COR-L 105; first compound 0.8 µM): 0.373 | relative viability (COR-L 105; first compound 2.53 µM): 0.45 | relative viability (LCLC-103H; first compound 0.08 µM): 0.459 | relative viability (LCLC-103H; first compound 0.253 µM): 0.477 | relative viability (LCLC-103H; first compound 0.8 µM): 0.449 | relative viability (LCLC-103H; first compound 2.53 µM): 0.442 | relative viability (LK-2; first compound 0.08 µM): 0.609 | relative viability (LK-2; first compound 0.253 µM): 0.544 | relative viability (LK-2; first compound 0.8 µM): 0.62 | relative viability (LK-2; first compound 2.53 µM): 0.609 | relative viability (NCI-H1355; first compound 0.08 µM): 0.407 | relative viability (NCI-H1355; first compound 0.253 µM): 0.418 | relative viability (NCI-H1355; first compound 0.8 µM): 0.388 | relative viability (NCI-H1355; first compound 2.53 µM): 0.435 | relative viability (NCI-H1648; first compound 0.08 µM): 0.274 | relative viability (NCI-H1648; first compound 0.253 µM): 0.276 | relative viability (NCI-H1648; first compound 0.8 µM): 0.312 | relative viability (NCI-H1648; first compound 2.53 µM): 0.259 | relative viability (NCI-H520; first compound 0.08 µM): 0.219 | relative viability (NCI-H520; first compound 0.253 µM): 0.208 | relative viability (NCI-H520; first compound 0.8 µM): 0.208 | relative viability (NCI-H520; first compound 2.53 µM): 0.248 | relative viability (NCI-H522; first compound 0.08 µM): 0.981 | relative viability (NCI-H522; first compound 0.253 µM): 0.823 | relative viability (NCI-H522; first compound 0.8 µM): 0.919 | relative viability (NCI-H522; first compound 2.53 µM): 0.855
